ChEMBL document CHEMBL1201862, “PubChem BioAssay data set” (2004)
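All cell lines were grown in 96-well plates and treated with compound for 48 hours. GI50 = concentration required for 50% inhibition of growth.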 Calls of active or inactive are those of the source. Cut-off read from the data, not from the text of the source: active = GI50 up to about 1.1 µM and inactive = higher.

Experiments:
Assay in all cases: NCI-60 cell line screen, 48 h
[1] = test system: DU-145
[2] = test system: ACHN
[3] = test system: IGROV-1
[4] = test system: SF-268
[5] = test system: A498
[6] = test system: U-251
[7] = test system: HL-60
[8] = test system: MDA-N
[9] = test system: EKVX
[10] = test system: M14
[11] = test system: PC-3
[12] = test system: NCI/ADR-RES
[13] = test system: SK-MEL-28
[14] = test system: RXF 393
[15] = test system: SNB-75
[16] = test system: NCI-H226
[17] = test system: KM12
[18] = test system: CAKI-1
[19] = test system: BT-549
[20] = test system: SW-620
[21] = test system: NCI-H23
[22] = test system: LOX IMVI
[23] = test system: 786-0
[24] = test system: HOP-92
[25] = test system: MDA-MB-231
[26] = test system: COLO 205
[27] = test system: NCI-H460
[28] = test system: SF-539
[29] = test system: OVCAR-5
[30] = test system: HCC 2998
[31] = test system: UACC-62
[32] = test system: OVCAR-8
[33] = test system: OVCAR-4
[34] = test system: K562
[35] = test system: Hs-578T
[36] = test system: SF-295
[37] = test system: UACC-257
[38] = test system: SK-OV-3
[39] = test system: Malme-3M
[40] = test system: T47D
[41] = test system: SK-MEL-5
[42] = test system: MCF7
[43] = test system: CCRF-CEM
[44] = test system: SK-MEL-2
[45] = test system: OVCAR-3
[46] = test system: UO-31
[47] = test system: NCI-H522
[48] = test system: SNB-19
[49] = test system: MDA-MB-435
[50] = test system: HCT-116
[51] = test system: HOP-62
[52] = test system: HT-29
[53] = test system: TK-10
[54] = test system: A549
[55] = test system: SR
[56] = test system: MOLT-4
[57] = test system: HCT-15
[58] = test system: RPMI-8226
[59] = test system: SN12C

In the case of COC(=O)C(Cc1c[nH]c2ccccc12)NC1=Nc2ccncc2S(=O)(=O)N1c1ccccc1 (centres undefined), the GI50 [1] is reported as 41.4 µM (inactive), the GI50 [2] is reported as 29.9 µM (inactive) and the GI50 [3] is reported as 31 µM (inactive). For the same compound, the GI50 [4] was 38.9 µM (inactive), the GI50 [5] was > 100 µM (inactive) and the GI50 [6] was 41.5 µM (inactive). The GI50 [7] was 0.199 µM (active), the GI50 [8] was 45.1 µM (inactive) and the GI50 [9] was > 100 µM (inactive). For the same compound, the GI50 [10] was 35.6 µM (inactive), the GI50 [11] was 29.1 µM (inactive) and the GI50 [12] was 33 µM (inactive). The GI50 [13] was 28.4 µM (inactive), the GI50 [14] was 19.9 µM (inactive) and the GI50 [15] was 20.7 µM (inactive). The GI50 [16] was 14.1 µM (inactive), the GI50 [17] was 31.3 µM (inactive) and the GI50 [18] was 39.4 µM (inactive). The GI50 [19] was 35 µM (inactive), the GI50 [20] was 28.1 µM (inactive) and the GI50 [21] was 41.5 µM (inactive). The GI50 [22] was 28.2 µM (inactive), the GI50 [23] was 33.3 µM (inactive) and the GI50 [24] was 20.7 µM (inactive). The GI50 [25] was 52.1 µM (inactive), the GI50 [26] was 17.6 µM (inactive) and the GI50 [27] was 98.2 µM (inactive). For the same compound, the GI50 [28] was 17.1 µM (inactive), the GI50 [29] was 41 µM (inactive) and the GI50 [30] was 27.5 µM (inactive). The GI50 [31] was 3.15 µM (inactive), the GI50 [32] was 34 µM (inactive) and the GI50 [33] was 24.7 µM (inactive). The GI50 [34] was 20.5 µM (inactive), the GI50 [35] was 56.1 µM (inactive) and the GI50 [36] was 52.1 µM (inactive). The GI50 [37] was 50.1 µM (inactive), the GI50 [38] was 56.5 µM (inactive) and the GI50 [39] was 19 µM (inactive). For the same compound, the GI50 [40] was 20.5 µM (inactive), the GI50 [41] was 16 µM (inactive) and the GI50 [42] was 33.2 µM (inactive). For the same compound, the GI50 [43] was 14.1 µM (inactive), the GI50 [44] was 38.1 µM (inactive) and the GI50 [45] was 34.2 µM (inactive). For the same compound, the GI50 [46] was 32.6 µM (inactive), the GI50 [47] was 28 µM (inactive) and the GI50 [48] was > 100 µM (inactive). The GI50 [49] was 32.1 µM (inactive), the GI50 [50] was 27.1 µM (inactive) and the GI50 [51] was 67.3 µM (inactive). For the same compound, the GI50 [52] was 18.9 µM (inactive), the GI50 [53] was > 100 µM (inactive) and the GI50 [54] was 59 µM (inactive). For the same compound, the GI50 [55] was 20.2 µM (inactive), the GI50 [56] was 15.3 µM (inactive) and the GI50 [57] was 77.6 µM. The GI50 [58] was 13.1 µM (inactive) and the GI50 [59] was 78.3 µM (inactive).
